Legend:
[1] = target: RmlA (Mycobacterium tuberculosis, UniProt P9WH13)
[2] = target: PknH (Mycobacterium tuberculosis, UniProt P9WI71)
[3] = target: PknD (Mycobacterium tuberculosis, UniProt P9WI79)
Sequence of PknD (P9WI79 2-664): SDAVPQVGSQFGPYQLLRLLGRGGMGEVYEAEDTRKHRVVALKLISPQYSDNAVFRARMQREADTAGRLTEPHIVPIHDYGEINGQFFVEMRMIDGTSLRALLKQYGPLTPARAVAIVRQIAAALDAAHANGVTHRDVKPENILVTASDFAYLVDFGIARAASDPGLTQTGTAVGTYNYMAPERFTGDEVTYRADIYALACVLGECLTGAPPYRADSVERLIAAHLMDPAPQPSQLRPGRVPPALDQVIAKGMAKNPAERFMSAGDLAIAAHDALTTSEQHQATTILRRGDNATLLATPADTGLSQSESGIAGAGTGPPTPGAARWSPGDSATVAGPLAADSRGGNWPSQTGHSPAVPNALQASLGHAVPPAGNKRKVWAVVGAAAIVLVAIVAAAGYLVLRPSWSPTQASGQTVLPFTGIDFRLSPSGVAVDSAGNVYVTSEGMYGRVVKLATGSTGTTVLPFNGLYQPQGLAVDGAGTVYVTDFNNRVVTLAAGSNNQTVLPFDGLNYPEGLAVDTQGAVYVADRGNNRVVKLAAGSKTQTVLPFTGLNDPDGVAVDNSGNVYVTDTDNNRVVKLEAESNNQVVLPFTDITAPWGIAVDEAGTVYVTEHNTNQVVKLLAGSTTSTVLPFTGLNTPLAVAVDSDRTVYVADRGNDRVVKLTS

Sequence of RmlA (P9WH13 whole entry): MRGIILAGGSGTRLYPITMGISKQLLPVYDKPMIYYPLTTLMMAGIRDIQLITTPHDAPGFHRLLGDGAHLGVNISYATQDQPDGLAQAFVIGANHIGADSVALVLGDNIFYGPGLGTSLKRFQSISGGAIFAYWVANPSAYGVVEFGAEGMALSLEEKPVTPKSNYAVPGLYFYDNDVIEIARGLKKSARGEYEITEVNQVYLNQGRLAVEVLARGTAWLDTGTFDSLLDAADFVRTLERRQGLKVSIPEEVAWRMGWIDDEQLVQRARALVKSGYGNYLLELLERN
Sequence of PknH (P9WI71 whole entry): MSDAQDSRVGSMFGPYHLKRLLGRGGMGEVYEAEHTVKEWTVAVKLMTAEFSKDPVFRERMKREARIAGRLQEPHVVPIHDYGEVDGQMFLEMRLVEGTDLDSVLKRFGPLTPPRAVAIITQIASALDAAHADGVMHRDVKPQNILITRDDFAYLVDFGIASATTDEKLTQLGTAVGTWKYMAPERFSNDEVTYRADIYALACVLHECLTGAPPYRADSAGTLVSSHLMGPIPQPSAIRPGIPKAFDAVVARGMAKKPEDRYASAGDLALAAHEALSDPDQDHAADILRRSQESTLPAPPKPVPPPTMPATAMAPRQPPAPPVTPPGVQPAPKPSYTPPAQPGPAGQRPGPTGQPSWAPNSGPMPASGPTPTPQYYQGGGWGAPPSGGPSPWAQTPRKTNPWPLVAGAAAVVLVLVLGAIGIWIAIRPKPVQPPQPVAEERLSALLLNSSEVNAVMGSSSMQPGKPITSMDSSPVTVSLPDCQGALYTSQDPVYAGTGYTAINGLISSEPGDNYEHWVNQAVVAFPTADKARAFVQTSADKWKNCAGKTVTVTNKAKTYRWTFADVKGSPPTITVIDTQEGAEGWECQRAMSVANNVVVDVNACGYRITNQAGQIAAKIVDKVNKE

Row | Structure (SMILES) | malachite green phosphate assay coupled with pyrophosphatase [1] | autophosphorylation assay [2] | autophosphorylation assay [3]
1 | O=P(O)(O)O[C@H]1O[C@H](CO)[C@@H](O)[C@H](O)[C@H]1O [D-Glc-1-P] | ability of RmlA to convert D-Glc-1-P and dTTP to D-Glc-dTDP and PPi |  | 
2 | Nc1ncnc2c1ncn2[C@@H]1O[C@H](COP(=O)(O)OP(=O)(O)OP(=O)(O)O)[C@@H](O)[C@H]1O [[γ-^32P]ATP] |  | three kinases, i.e., PknB, PknD, and PknH, demonstrated high kinase activities | three kinases, i.e., PknB, PknD, and PknH, demonstrated high kinase activities
3 | Cc1cn([C@H]2C[C@H](O)[C@@H](COP(=O)(O)OP(=O)(O)OP(=O)(O)O)O2)c(=O)[nH]c1=O [dTTP] | ability of RmlA to convert D-Glc-1-P and dTTP to D-Glc-dTDP and PPi |  | 

Reference: PMC8044546, “Mycobacterium tuberculosis Thymidylyltransferase RmlA Is Negatively Regulated by Ser/Thr Protein Kinase PknB” (Frontiers in Microbiology, 2021)
